Data reported in patent US10251845B2, “Fatty acid cysteamine conjugates and their use as activators of autophagy” (Catabasis Pharmaceuticals, Inc., priority 2014, dated 2019).

Test system: Tissue Inhibitor of Metalloproteinase 2 (TIMP-2)
Experiment: ELISA of TIMP-2 in conditioned media of lung fibroblasts
Type: cell-based, human
Conditions: NLF, LL29 or LL97A cells, 25 μM, in the presence of TGFβ
Source text: Normal human lung fibroblasts (ScienCell Research Laboratory 3420), lung fibroblasts from idiopathic pulmonary fibrosis (IPF) patients LL29 (AnHa) (ATCC) and LL97A (ALMy) (ATCC) were maintained in DMEM F12 (Gibco 10565) supplemented with 15% fetal bovine serum (FBS) (Gibco 10437-028) plus Pen-Strep (1%) (Gibco 15140-122). Cells were split every 3 to 4 days at 1:2/1:3 dilution each time. The day before the experiment, cells were trypsinized using Trypsin-EDTA (0.05%) (Gibco 25300-054) and plated on 24-well […] at 1×10^5 cells per well.
Compounds II-3 and I-1 were first solubilized in 100% DMSO as 50 mM solution, and then diluted 1 to 200 in 1% BSA as a 10× stock solution of […], and series stock dilution (1 to 2 dilution) were carried out as needed. […] The total RNA was harvested, and the relative mRNA expression levels were assessed via RT-PCR with HPRT as the internal control. […] Significance was determined by student's t-test in comparison to control.
Conditioned media were collected at the end of the experiment. The levels of Matrix Metalloproteinase 2 (MMP-2) (R&D System MMP200) and human Tissue Inhibitor of Metalloproteinase 2 (TIMP-2) (R&D System DTM200) were measured according to the manufacturer's instruction. […] The ELISA was measured on a Victor×5 multilabel plate reader (PerkinElmer) at an absorbance of 450 nm with background correction at 550 nm. […]

Question: For `CC/C=C\C/C=C\C/C=C\C/C=C\C/C=C\C/C=C\CCC(=O)NCCSSC(C)(C)CNC(=O)c1cccnc1` [II-3, N-(2-((2-((4Z,7Z,10Z,13Z,16Z,19Z)-docosa-4,7,10,13,16,19-hexaenamido)ethyl)disulfanyl)-2-methylpropyl)nicotinamide], which “TIMP-2 level in conditioned media” value is on record?
Answer: marked reduction
